Calls of active or inactive are those of the source.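 The calls were made as follows: active = inhibitor whose half-maximal potency stays within twice the top tested dose in every replicate test; inconclusive = mixed calls across tests, weak flat response, or poor curve fit; inactive = all tests inactive, including rising signal.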
molecular target: Endoplasmic reticulum aminopeptidase 1 (Homo sapiens) (UniProt Q9NZ08); experiment: ERAP1 Leu-AMC hydrolysis inhibition – biochemical, fluorescence, dry powder, set 2, dose response (AID 1117287); settings: 60 min
Sequence (Q9NZ08 whole entry, looked up): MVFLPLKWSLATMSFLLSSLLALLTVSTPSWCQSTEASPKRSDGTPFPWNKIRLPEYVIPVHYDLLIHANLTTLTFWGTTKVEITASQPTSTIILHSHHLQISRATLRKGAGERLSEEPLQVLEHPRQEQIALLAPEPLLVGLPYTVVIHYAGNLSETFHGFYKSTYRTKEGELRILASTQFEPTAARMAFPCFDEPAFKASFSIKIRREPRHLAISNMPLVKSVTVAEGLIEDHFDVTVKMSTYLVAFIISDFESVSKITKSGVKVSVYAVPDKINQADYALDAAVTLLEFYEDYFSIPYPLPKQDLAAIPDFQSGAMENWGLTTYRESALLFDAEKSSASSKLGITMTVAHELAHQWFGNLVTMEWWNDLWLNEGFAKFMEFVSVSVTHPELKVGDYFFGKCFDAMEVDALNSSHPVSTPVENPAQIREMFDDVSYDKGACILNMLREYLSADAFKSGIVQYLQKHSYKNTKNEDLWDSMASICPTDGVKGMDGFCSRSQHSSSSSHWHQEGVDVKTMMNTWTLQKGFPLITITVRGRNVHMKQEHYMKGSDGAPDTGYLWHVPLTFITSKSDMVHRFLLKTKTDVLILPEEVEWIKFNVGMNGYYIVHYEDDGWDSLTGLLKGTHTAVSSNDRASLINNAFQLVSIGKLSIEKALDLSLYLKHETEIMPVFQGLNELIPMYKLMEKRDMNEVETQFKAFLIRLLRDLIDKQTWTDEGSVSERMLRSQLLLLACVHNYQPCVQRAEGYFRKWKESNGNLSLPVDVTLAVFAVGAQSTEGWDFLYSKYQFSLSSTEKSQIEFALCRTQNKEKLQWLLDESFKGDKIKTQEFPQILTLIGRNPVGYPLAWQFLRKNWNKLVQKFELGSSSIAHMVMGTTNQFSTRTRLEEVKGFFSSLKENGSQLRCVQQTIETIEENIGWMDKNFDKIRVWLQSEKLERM

AC50 | SMILES
> 100 µM (inactive) | COc1ccc(C(=O)O)cc1S(=O)(=O)Nc1cccc(N2CCCCC2)c1C(F)(F)F
> 100 µM (inactive) | COc1ccc(C(=O)O)cc1S(=O)(=O)N1CCN(c2ccc(C(F)(F)F)cc2N)CC1
> 100 µM (inactive) | COc1ccc(C(=O)O)cc1S(=O)(=O)Nc1ccc(N2CCCCC2)cc1C(F)(F)F

same assay, conditions: 60 min, at 26 µM (top of the series)

activity change, negative = inhibition | SMILES
inactive | O=S(=O)(O)c1ccc(N2N=C(c3ccccc3)CC2c2ccccc2)cc1 (stereo not drawn)

same assay, conditions: 60 min, at 26 µM (top of the series), above what the read-out allows, likely interference

activity change, negative = inhibition | SMILES
inactive | COc1ccc(C2=NN(c3ccc(C(=O)O)cc3)C(c3ccc(OC)c(OC)c3)C2)cc1 (stereo not drawn)

same assay, conditions: 60 min, at 50 µM (top of the series)

activity change, negative = inhibition | SMILES
inactive | COc1ccc(C(=O)Nc2cccc(C(F)(F)F)c2)cc1S(=O)(=O)O
inactive | O=C(O)c1cc(F)cc(S(=O)(=O)Nc2cc(C(F)(F)F)ccc2N2CCCCC2)c1
inactive | Cc1ccc(C(=O)O)cc1S(=O)(=O)Nc1cc(C(F)(F)F)ccc1N1CCCCC1
inactive | COc1ccc(C(=O)O)cc1S(=O)(=O)Nc1cc(C(F)(F)F)ccc1N1CCCCC1
inactive | COc1ccc(C(=O)O)cc1S(=O)(=O)Nc1cc(C(F)(F)F)ccc1N1CCN(C(C)=O)CC1
inactive | COc1ccc(C(=O)O)cc1S(=O)(=O)Nc1cc(C(F)(F)F)ccc1N(C)C
inactive | COc1ccc(C(=O)O)cc1S(=O)(=O)Nc1cc(C(F)(F)F)ccc1N1CCOCC1
inactive | Cc1ccc(S(=O)(=O)Nc2cc(C(F)(F)F)ccc2N2CCCCC2)cc1C(=O)O

— PubChem BioAssay AID1117287 (Broad Institute, 2014)
